Results reported in patent US8809344B2, “Compounds, compositions, and methods for control of hepatitis C viral infections” (priority 2008, dated 2014).
pEC50: −log10 of the molar value. Where two headings read alike, the source gives them in different places.

Tests used:
[1] = system: subgenomic genotype 2a replicon (J6 and JFH1 strains); assay: Genotype 2a hRluc replicon assay in Huh7 cells, Renilla luciferase readout; assay type: cell-based; conditions: Hepatitis C virus, Huh-7, 48 h
Description: (§1) Inhibition of HCV replication by compound AP0080978 (enantiomer 2 from Example 1) was also assayed by exposing cells harboring either HCV genotype 1a, HCV genotype 1b, HCV genotype 2a replicons. […] Final DMSO percentage was 1% in a total volume of 1 ml. After a 72 hour treatment period, total RNA was extracted, quantified via RiboGreen™ assay (Invitrogen-Molecular Probes, Eugene, Oreg., USA), and equivalent amounts of RNA were subjected to quantitative RT-PCR to quantify HCV RNA levels. Activity against genotype 1b was re-confirmed using Clone II cells (U.S. Pat. No. 7,049,428) that contain a stable subgenomic replicon (Con1 strain) with a Arg 1164 Gly adaptive mutation that is distinct from the Ser 1179 Ile adaptive mutation present in Clone VI cells. In this assay, cells were seeded into 96-well plates and treated in quadruplicate with varying concentration of compounds for 72 hours. For each replicate culture, HCV RNA levels were measured by blot hybridization and normalized to β-actin RNA levels. Cytotoxicity was measured using an established neutral red dye uptake assay (Korba and Gerin (1992) Antiviral Res 19:55; Okuse et al (2005) Antiviral Res 65: 23). […] Activity and toxicity against genotype 2a was evaluated in Huh7 cells harboring a stable hRluc-containing subgenomic genotype 2a replicon containing sequence from both J6 and JFH1 strains. […]

[2] = system: stable genotype 1b (Con1 strain) subgenomic replicon; assay: EC50 in Clone VI cells, quantitative RT-PCR of HCV RNA; assay type: cell-based; conditions: Hepatitis C virus, 72 hour
Description: as §1, with “Activity against genotype 1b was re-confirmed using Clone II cells (U.S. Pat. No. 7,049,428) that contain a stable subgenomic replicon (Con1 strain) with a Arg 1164 Gly adaptive mutation that is distinct from the Ser 1179 Ile adaptive mutation present in Clone VI cells. In this assay, cells were seeded into 96-well plates and treated in quadruplicate with varying concentration of compounds for 72 hours.” left out
Additional compounds of formula (I) shown in FIG. 1 were also shown to inhibit HCV RNA replication. The effects of various compounds of formula (I) on HCV RNA replicon levels were determined by measuring HCV replicon RNA levels in cells treated with various concentrations of the compounds. […] Total RNA was extracted 72 hours later, and HCV and GAPDH RNA levels were quantified via quantitative RT-PCR. […]

[3] = system: genotype 2a replicon with the L1809F mutation; assay: Genotype 2a replicon with L1809F mutation; assay type: cell-based; conditions: Hepatitis C virus
Description: Since leucine at amino acid 1809 in the genotype 1b replicon was mutated from a phenylalanine residue to a leucine or a valine residue to confer resistance to 80978, and the residue at the corresponding position in the parental genotype 2a replicon is leucine, mutagenesis was carried out to determine whether a phenylalanine at this position in the genotype 2a replicon was sufficient to confer sensitivity to 80978.

[4] = system: genotype 2a replicon encoding genotype 1b NS4B amino acids 53 to 218; assay: Chimeric genotype 1b/2a replicon (NS4B aa 53 to 218 from 1b) in Huh7.5 cells; assay type: cell-based, hepatitis C virus
Text: That NS4B is the target of 80978 was confirmed by a complementary approach. The differential response to 80978 by HCV genotype 1b and 2a replicons allowed the use of chimeric replicons to narrow down the region of the HCV genotype 1b NS4B coding region that confers sensitivity to 80978. The nucleotide sequence of the wild type HCV genotype 2a NS4B is provided as SEQ ID NO: 7 and the wild type HCV genotype 2a NS4B protein sequence is provided as SEQ ID NO:8. Using a plasmid containing an 80978-resistant stable HCV genotype 2a subgenomic reporter replicon cDNA, six replacement, or chimeric constructs were made, where the regions encoding the following amino acids of NS4B were replaced with the regions encoding the corresponding amino acids of NS4B from HCV genotype 1b: (i) 7-254, (ii) 7-52, (iii) 53-254, (iv) 219-254, (v) 7-52 and 219-254, and (vi) 53 to 218. The full-length NS4B protein is 261 amino acids in length and is provided as SEQ ID NO:2. Thus, if any of these segments of NS4B from genotype 1b are sufficient to confer 80978-sensitivity to a genotype 2a HCV replicon, it will render the chimeric genotype 1b/genotype 2a replicon sensitive to the compound.
Response to 80978 was measured initially in unselected cells. […] All of the chimeric and wild type control constructs were responsive to Cyclosporin A (CsA).

**Q.** O=C(NCc1cccs1)c1nn2c(c1Cl)N[C@H](c1ccco1)C[C@@H]2C(F)(F)F (single isomer, unassigned) [Compound 80978] was tested. Which pEC50 [1] did it give?
**A.** < 4.60

**Q.** What about the pEC50 ([2]; FIG. 2, compounds other than 80978 as racemates, read-out: EC50 for inhibition of HCV RNA replication) of the same compound?
**A.** 6.05

**Q.** And the pEC50 ([2]; Experiment 1, genotype 1b, RT-PCR, read-out: EC50)?
**A.** 5.76 to 6.05

**Q.** And the pEC50 [3]?
**A.** < 4.60

**Q.** And the “response to 80978” value ([4]; Geneticin-selected stable replicon-containing cells, amino acids 53-218)?
**A.** responsive

**Q.** And the pEC50 ([4]; Hepatitis C virus, Huh7.5)?
**A.** > 5.60
